Assay results from publication PMC9202281 (ACS Omega, 2022).
Read-outs that look alike come from different tables or passages of the source.

What was measured:
[1] = Solubility in solvents for NMR; assay type: physicochemical
[2] = molecular target: jack bean urease (EC 3.5.1.5) (Canavalia ensiformis, UniProt P07374); assay: Urease inhibition method; assay type: biochemical
jack bean urease (EC 3.5.1.5), sequence (P07374 whole entry, looked up): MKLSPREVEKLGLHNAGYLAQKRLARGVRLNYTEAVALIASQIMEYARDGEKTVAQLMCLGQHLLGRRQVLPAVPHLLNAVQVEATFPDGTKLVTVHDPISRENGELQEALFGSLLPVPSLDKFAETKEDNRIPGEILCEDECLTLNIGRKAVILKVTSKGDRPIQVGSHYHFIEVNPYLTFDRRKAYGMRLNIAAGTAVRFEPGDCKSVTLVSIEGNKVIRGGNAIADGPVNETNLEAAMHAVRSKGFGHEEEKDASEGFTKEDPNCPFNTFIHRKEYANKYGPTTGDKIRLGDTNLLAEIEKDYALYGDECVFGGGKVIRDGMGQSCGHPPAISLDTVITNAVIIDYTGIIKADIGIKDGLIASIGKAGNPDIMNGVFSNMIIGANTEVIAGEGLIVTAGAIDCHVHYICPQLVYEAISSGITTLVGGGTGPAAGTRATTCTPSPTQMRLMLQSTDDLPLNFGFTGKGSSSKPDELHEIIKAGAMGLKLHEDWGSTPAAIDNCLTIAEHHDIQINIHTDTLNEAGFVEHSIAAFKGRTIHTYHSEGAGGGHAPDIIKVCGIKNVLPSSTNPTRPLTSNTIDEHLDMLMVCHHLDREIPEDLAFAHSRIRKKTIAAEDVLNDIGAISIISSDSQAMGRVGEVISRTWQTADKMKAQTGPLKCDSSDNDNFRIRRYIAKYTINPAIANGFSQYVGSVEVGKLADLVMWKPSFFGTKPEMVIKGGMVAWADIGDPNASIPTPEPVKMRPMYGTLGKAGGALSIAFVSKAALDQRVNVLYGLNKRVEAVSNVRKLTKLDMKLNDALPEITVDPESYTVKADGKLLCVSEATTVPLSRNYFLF

Q: With `CN1C(=O)C(C2OC(=O)c3ccccc32)C(=O)N(C)C1=O` (stereo not shown) [3b, 1,3-Dimethyl-5-(3-oxo-1,3-dihydroisobenzofuran-1-yl) Barbituric Acid] as the compound, how does the solubility in solvents [1] read?
A: The solubility in solvents was “soluble in CHCl3”.

Q: Which IC50 [2] does the source give for `O=C1NC(=O)C(C2c3ccccc3C(=O)N2c2ccccc2)C(=O)N1` (stereo not shown) [5a, 5-(3-Oxo-2-phenylisoindolin-1-yl) Barbituric Acid] here?
A: Its IC50 is 1850 ± 60 nM.

Q: Which IC50 [2] does the source give for `COc1ccc(N2C(=O)c3ccccc3C2C2C(=O)NC(=O)NC2=O)cc1` (stereo not shown) [5b, 5-(2-(4-Methoxyphenyl)-3-oxoisoindolin-1-yl) Barbituric Acid] here?
A: The IC50 was 820 ± 30 nM.

Q: Which IC50 [2] does the source give for `O=C1NC(=O)C(C2c3ccccc3C(=O)N2c2ccc(Cl)cc2)C(=O)N1` (stereo not shown) [5c, 5-(2-(4-Chlorophenyl)-3-oxoisoindolin-1-yl) Barbituric Acid] here?
A: Its IC50 is 1250 ± 50 nM.

Q: With `Cc1ccc(N2C(=O)c3ccccc3C2C2C(=O)NC(=O)NC2=O)cc1C` (stereo not shown) [5d, 5-(2-(3,4-Dimethylphenyl)-3-oxoisoindolin-1-yl) Barbituric Acid] as the compound, how does the IC50 [2] read?
A: The IC50 was 1070 ± 20 nM.

Q: With `O=C1NC(=O)C(C2c3ccccc3C(=O)N2c2ccc(Br)cc2)C(=O)N1` (stereo not shown) [5e, 5-(2-(4-Bromophenyl)-3-oxoisoindolin-1-yl) Barbituric Acid] as the compound, how does the IC50 [2] read?
A: The IC50 was 960 ± 10 nM.

Q: For `O=C1NC(=O)C(C2c3ccccc3C(=O)N2c2ccc(Cl)c(Cl)c2)C(=O)N1` (stereo not shown) [5f, 5-(2-(3,4-Dichlorophenyl)-3-oxoisoindolin-1-yl) Barbituric Acid], which IC50 [2] is on record?
A: Its IC50 is 960 ± 10 nM.

Q: For `Cc1ccc(N2C(=O)c3ccccc3C2C2C(=O)NC(=O)NC2=O)cc1` (stereo not shown) [5g, 5-(3-Oxo-2-(p-tolyl) Isoindolin-1-yl) Barbituric Acid], which IC50 [2] is on record?
A: The IC50 was 1090 ± 70 nM.

Q: With `O=C1NC(=O)C(C2c3ccccc3C(=O)N2c2ccc(F)cc2)C(=O)N1` (stereo not shown) [5h, 5-(2-(4-Fluorophenyl)-3-oxoisoindolin-1-yl) Barbituric Acid] as the compound, how does the IC50 [2] read?
A: Its IC50 is 1280 ± 40 nM.

Q: With `O=C1NC(=O)C(C2c3ccccc3C(=O)N2c2cccc(Cl)c2)C(=O)N1` (stereo not shown) [5i, 5-(2-(3-Chlorophenyl)-3-oxoisoindolin-1-yl) Barbituric Acid] as the compound, how does the IC50 [2] read?
A: The IC50 was 1220 ± 50 nM.

Q: For `O=C1NC(=O)C(C2c3ccccc3C(=O)N2c2cc(Cl)cc(Cl)c2)C(=O)N1` (stereo not shown) [5j, 5-(2-(3,5-Dichlorophenyl)-3-oxoisoindolin-1-yl) Barbituric Acid], which IC50 [2] is on record?
A: Its IC50 is 1780 ± 100 nM.

Q: For `CC(C)CN1C(=O)c2ccccc2C1C1C(=O)NC(=O)NC1=O` (stereo not shown) [5k, 5-(2-Isobutyl-3-oxoisoindolin-1-yl) Barbituric Acid], which IC50 [2] is on record?
A: The IC50 was 1620 ± 50 nM.

Q: Which IC50 [2] does the source give for `CC(C)N1C(=O)c2ccccc2C1C1C(=O)NC(=O)NC1=O` (stereo not shown) [5l, 5-(2-Isopropyl-3-oxoisoindolin-1-yl) Barbituric Acid] here?
A: Its IC50 is 1850 ± 60 nM.

Q: For `COc1ccc(N2C(=O)c3ccccc3C2C2C(=O)N(C)C(=O)N(C)C2=O)cc1` (stereo not shown) [5m, 1,3-Dimethyl-5-(2-(4-methoxyphenyl)-3-oxoisoindolin-1-yl) Barbituric Acid], which IC50 [2] is on record?
A: Its IC50 is 970 ± 10 nM.

Q: With `COc1ccc(N2C(=O)c3ccccc3C2C2C(=O)NC(=S)NC2=O)cc1` (stereo not shown) [5n, 5-(2-(4-Methoxyphenyl)-3-oxoisoindolin-1-yl)-2-thiobarbituric Acid] as the compound, how does the IC50 [2] read?
A: Its IC50 is 1340 ± 10 nM.

Q: Which IC50 ([2]; read-out: IC50 ± SEM, jack bean urease, triplicate, mean ± SEM) does the source give for `NC(N)=S` [thiourea, reference compound] here?
A: The IC50 was 22000 ± 1200 nM.
